“Also recorded” adds a separate entry of the source.
Key:
MT-4 cells = settings: 100 ng/ml and concentrations up to 1,000-fold higher
Protocol: MT-4 T lymphocytes (5×10^4 cells/ml) were seeded in 96well plates and exposed to IIIB strain of HIV-1 (at MOI equal to 100 infectious doses) in the presence of ten-fold, serial dilutions of hCG peptides (range 100 mcg-1 ng per ml). […] The tests were repeated three times with duplicates for each dilution of an individual peptide. All cultures were grown in RPMI-1640/10% FBS medium supplemented witi L-glutamine and penicillin/streptomycin. The culture plates were kept in a humidified incubator with 5% CO2 at 37° C. […] This difference in the survival pattern, indicative of the antiviral activity, was quantitated by tetrazolium salt XTT assay. This assay is based on the rationale that the viability of MT-4 correlates directly with the activity of mitochondrial hydrogenases converting XTT into optically dense formazan dye. […] At the appropriate time 1 mg/ml of XTT (Sigma, St Louis, Mo.) was nixed with 1% w/v phenazine methosulfate (Aldrich, Milwaukee, Wis.) and 20 mcl of the mixture was added to the wells for 4 hours. The optical density of formazan was then determined in a plate reader at 450 nm with reference filter at 620 nm. The proportion of surviving MT-4 cells treated with hCG peptides was calculated as a function of the viability of mock-infected cells in relation to positive control wells containing untreated cells dead from exposure to HIV.

IIIB strain of HIV-1 = experiment: Anti-HIV effect: protection of MT-4 T lymphocytes from HIV-caused cell death (XTT assay); assay type: cell-based; settings: MT-4, HIV-1 IIIB, 100 mcg-1 ng per ml, 5-7 days
Protocol: Viability=100%×[(ODT)-(ODD)]/[(ODM)-(ODD)]
Where ODT is optical density values of culture wells treated with test peptides; ODM optical density of mock-infected cells; ODD light absorbance values of untreated cells dead from exposure to HIV.
The serial ten-fold dilutions (100 mcg-1 ng per ml) of 6 different synthetic peptides representing N-terminal and core region of hCG were tested for their effect on HIV replication (FIG. 1). […] In these experiments the viability of MT4 was determined after 5-7 days of continuous presence of the virus and hCG peptide fragment in the target cell culture.

Row | Compound | toxicity to cells employed in the assay (MT-4 cells) | anti-HIV effect (in words) (IIIB strain of HIV-1)
1 | CC[C@H](C)[C@H](NC(=O)[C@@H]1CCCN1C(=O)[C@@H](NC(=O)[C@H](CC(=O)O)NC(=O)[C@H](CO)NC(=O)[C@@H]1CCCN1C(=O)CNC(=O)[C@@H]1CCCN1C(=O)[C@H](CC(C)C)NC(=O)[C@H](CCCNC(=N)N)NC(=O)[C@H](CO)NC(=O)[C@@H]1CCCN1C(=O)[C@H](CO)NC(=O)[C@@H]1CCCN1C(=O)[C@H](CC(C)C)NC(=O)[C@H](CO)NC(=O)[C@@H]1CCCN1C(=O)[C@@H]1CCCN1C(=O)[C@@H]1CCCN1C(=O)[C@H](C)NC(=O)[C@H](CCCCN)NC(=O)[C@H](CO)NC(=O)[C@H](CO)NC(=O)[C@H](CO)NC(=O)[C@H](CO)NC(=O)[C@H](CC(=O)O)NC(=O)[C@H](CCC(N)=O)NC(=O)[C@H](Cc1ccccc1)NC(=O)[C@H](CCCNC(=N)N)NC(=O)[C@@H]1CCCN1C(=O)[C@H](CC(=O)O)NC(=O)[C@H](CC(=O)O)NC(=O)[C@H](CS)NC(=O)[C@@H](NC(=O)[C@H](CC(C)C)NC(=O)[C@@H]1CCCN1C(=O)[C@@H](N)Cc1c[nH]cn1)[C@@H](C)O)[C@@H](C)O)C(=O)N[C@@H](CC(C)C)C(=O)N1CCC[C@H]1C(=O)N[C@@H](CCC(N)=O)C(=O)O [CTP of hCG] | not toxic | –
2 | C100 GGPKDHPLTC110 DD (CGGPKDHPLTCDD) [compound 7] | – | active; also recorded: restricted effect
3 | K20 EGCPVCITVN30 TT (KEGCPVCITVNTT) [peptide #1] | – | active at nanogram doses
